Source: patent publication US11484529B2, “Desmethylanethole trithione derivatives for the treatment of diseases linked to mitochondrial reactive oxygen species (ROS) production” (OP2 Drugs, priority 2017, dated 2022)
“Also recorded” adds a separate entry of the source. Where two headings read alike, the source gives them in different places.

Tests used:
site IQ of complex I = site IQ of complex I (Rattus norvegicus, UniProt A6K8N6+P03889+Q641Y2); assay: Mitochondrial ROS/H2O2 production (Amplex Red/HRP), glutamate+malate+succinate with ATR, no inhibitor; assay type: biochemical
Procedure: Rates of ROS/H2O2 production from heart mitochondria were assessed through the oxidation of the colorless, non-fluorescent indicator Amplex Red in the presence of exogenous horseradish peroxidase (HRP, EC 1.11.1.7, Sigma). H2O2 reacts with Amplex Red in a 1:1 stoichiometry, yielding the fluorescent compound resorufin (excitation: 560 nm; emission: 585 nm) which is stable once formed. Fluorescence was measured continuously with a spectro-fluorometer equipped with temperature control and stirring (SAFAS Xenius, Monaco). Isolated mitochondria (0.1 mg/mL) were incubated in the same experimental buffer than previously, supplemented with 15 μM Amplex Red and 10 μg/mL HRP. Glutamate (5 mM)/malate (2.5 mM) together with succinate (5 mM) were used as complex I and complex II substrates, respectively. Experiments were conducted under non-phosphorylating conditions in the presence of 15 μM atractyloside, i.e., under state IV conditions where […]. Afterwards, rotenone (1.5 μM), antimycin A (2 μM), and myxothiazol (0.2 μM) were sequentially added to inhibit the redox centers within the electron transfer chain (FIG. 2), namely sites IQ, IF (with rotenone), IIIQi (with antimycin A) and IIIQO (with myxothiazol). Assay was finally calibrated with known amounts of H2O2 (steps of 300 nM), in the presence of all relevant compounds, including AOL. The control test of the absence of effect of AOL on the Amplex Red assay itself and NAD(P)H oxidase ROS/H2O2 production was carried out in the absence of cardiac mitochondria and the presence of NAD(P)H oxidase (EC 1.6.3.3, 5 mU/mL, Sigma) and NADH (100 μM) solutions.
Rates of ROS/H2O2 production from heart mitochondria were assessed through the oxidation of the colorless, non-fluorescent indicator Amplex Red in the presence of exogenous horseradish peroxidase (HRP, EC 1.11.1.7, Sigma). H2O2 reacts with Amplex Red in a 1:1 stoichiometry, yielding the fluorescent compound resorufin (excitation: 560 nm; emission: 585 nm) which is stable once formed. Fluorescence was measured continuously with a spectro-fluorometer equipped with temperature control and stirring (SAFAS Xenius, Monaco).
Isolated mitochondria (0.1 mg/mL) were incubated in the same experimental buffer than previously, supplemented with 15 μM Amplex Red and 10 μg/mL HRP. Glutamate (5 mM)/malate (2.5 mM) together with succinate (5 mM) were used as complex I and complex II substrates, respectively. Experiments were conducted under non-phosphorylating conditions in the presence of 15 μM atractyloside. Afterwards, rotenone (1.5 μM), antimycin A (2 μM), and myxothiazol (0.2 μM) were sequentially added to inhibit the redox centers within the electron transfer chain (see FIG. 2), namely sites IQ, IF (with rotenone), IIIQi (with antimycin A) and IIIQO (with myxothiazol). Assay was finally calibrated with known amounts of H2O2 (steps of 300 nM), in the presence of all relevant compounds, including AOX. The control test of the absence of effect of AOL, AOX and Oltipraz on the Amplex Red assay itself and NAD(P)H oxidase […] production was carried out in the absence of cardiac mitochondria and the presence of NAD(P)H oxidase (EC 1.6.3.3, 5 mU/mL, Sigma) and NADH (100 μM) solutions.

[1] = test system: isolated mitochondria from rat heart; assay: Mitochondrial respiration / oxidative phosphorylation (oxygraph); assay type: biochemical
Procedure: Male Wistar rats (250-325 g; obtained from Janvier Labs, Le Genest-Saint-Isle, France) were killed by stunning and cervical dislocation, and the heart was quickly removed and washed in cold isolation medium containing 100 mM sucrose, 180 mM KCl, 50 mM Tris, 5 mM MgCl2, 10 mM EDTA, and 0.1% (w/v) defatted BSA (pH 7.2).
Isolation of heart mitochondria was performed in a cold chamber. Before homogenization, hearts (about 1.5 g) were minced with scissors and treated for 5 minutes in 5 mL of the same medium supplemented with protease (2 mg of bacterial proteinase type XXIV per mL of isolation buffer) with stirring. The tissue suspension was poured into a 50-mL glass Potter homogenizer, diluted with 20 mL of isolation buffer, then homogenized for 3 minutes using a motorized Teflon pestle. The homogenate was filtered through bolting cloth (Sefar Nitex) to remove debris, and centrifuged at 8,000 g for 10 minutes. The resulting pellet was rinsed with 5 mL of isolation buffer, resuspended in 25 mL of the same buffer, then subjected to low speed centrifugation (400 g) for 8 minutes. […] Protein concentration was determined by the Bradford method (Sigma, kit #B6916) using BSA as standard. […]
(§1) Oxygen consumption rates of heart mitochondria (0.1 mg/mL), incubated in the absence or presence of AOL at increasing doses (from 0 to 80 μM final concentration), were recorded polarographically under constant stirring at 25° C. using a high-resolution oximeter (Oxygraph-2K, Oroboros Instruments, Austria). […]
Isolation of heart mitochondria was performed in a cold chamber. […] Protein concentration was determined by the Bradford method (Sigma, kit # B6916) using BSA as standard. […]
as §1, with “AOX” for “AOL”, “100” for “80”

site IQ of complex I, sequence (A6K8N6 entry or part of it): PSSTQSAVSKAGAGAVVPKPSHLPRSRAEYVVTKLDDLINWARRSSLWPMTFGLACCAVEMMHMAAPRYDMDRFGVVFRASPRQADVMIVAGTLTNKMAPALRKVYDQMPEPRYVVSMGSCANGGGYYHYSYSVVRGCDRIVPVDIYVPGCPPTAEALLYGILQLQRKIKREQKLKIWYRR
site IQ of complex I, sequence (P03889 whole entry): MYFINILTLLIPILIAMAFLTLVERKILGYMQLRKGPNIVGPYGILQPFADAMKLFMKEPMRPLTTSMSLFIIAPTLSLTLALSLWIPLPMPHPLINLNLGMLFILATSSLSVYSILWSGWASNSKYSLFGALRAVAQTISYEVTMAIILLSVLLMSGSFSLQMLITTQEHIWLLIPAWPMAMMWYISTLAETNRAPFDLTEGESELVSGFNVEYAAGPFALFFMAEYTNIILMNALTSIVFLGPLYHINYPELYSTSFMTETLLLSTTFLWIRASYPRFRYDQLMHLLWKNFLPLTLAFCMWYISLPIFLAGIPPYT
site IQ of complex I, sequence (Q641Y2 34-463): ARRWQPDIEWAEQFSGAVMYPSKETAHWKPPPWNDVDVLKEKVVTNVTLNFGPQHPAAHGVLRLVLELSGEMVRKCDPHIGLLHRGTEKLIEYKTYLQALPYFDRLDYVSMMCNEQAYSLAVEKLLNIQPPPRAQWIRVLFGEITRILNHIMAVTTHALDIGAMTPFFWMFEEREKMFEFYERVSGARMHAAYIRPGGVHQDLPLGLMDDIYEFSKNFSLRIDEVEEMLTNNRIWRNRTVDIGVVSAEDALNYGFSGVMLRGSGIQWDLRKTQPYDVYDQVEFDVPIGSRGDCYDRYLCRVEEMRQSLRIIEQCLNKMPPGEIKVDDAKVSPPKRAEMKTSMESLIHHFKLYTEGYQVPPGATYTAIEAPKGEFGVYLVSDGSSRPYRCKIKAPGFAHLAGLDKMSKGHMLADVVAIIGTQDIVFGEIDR

Row | Compound | decrease of ROS/H2O2 production measured in the absence of inhibitor (site IQ of complex I; AOL 5 to 80 μM, glutamate, malate, succinate, only ATR present) | effect on mitochondrial respiration / oxidative phosphorylation ([1]; AOL 5 to 80 μM, glutamate+malate, succinate(+rotenone) or all substrates, substrate, ADP and ATR states) | lowest concentration showing an inhibitory effect on ROS production by site IQ (site IQ of complex I; AOX 2.5 to 20 μM, glutamate, malate, succinate, ATR) | IC50 (site IQ of complex I; AOX 2.5 to 20 μM, glutamate, malate, succinate, ATR, read-out: estimated IC50 on ROS production by site IQ) | Hill coefficient (site IQ of complex I; fit of FIG. 21) | Maximum (fit parameter) (site IQ of complex I; fit of FIG. 21) | Minimum (fit parameter) (site IQ of complex I; fit of FIG. 21) | IC50 (site IQ of complex I; fit of FIG. 21, read-out: IC50 (fit parameter)) | oxidation rate under substrate state and ATR state ([1]; AOX 20 to 100 μM, succinate (+ rotenone)) | concentrations with uncoupling effect on oxidative phosphorylation ([1]; succinate (+ rotenone))
1 | COc1ccc(-c2cc(=S)ss2)cc1 [AOL, 5-(4-methoxyphenyl)-3H-1,2-dithiole-3-thione] | approximately 80% | no statistical differences in mitochondrial respiration; also recorded: statistically no differences were observed | – | – | – | – | – | – | – | –
2 | Oc1ccc(-c2cc(=S)ss2)cc1 [AOX, 5-(4-hydroxyphenyl)-3H-1,2-dithiole-3-thione] | – | – | 2.5 µM | ~9.5 µM | 2.616±0.5706 | 554.045±19.73 | −72.5272±68.64 | 9.47 ± 1.02 µM | increase for concentrations up to 50 μM followed by a decrease for concentrations over 50 μM | higher than 20 μM
